ChEMBL document CHEMBL4342474, “Scaffold and Parasite Hopping: Discovery of New Protozoal Proliferation Inhibitors” (ACS Med Chem Lett, 2020)
Converted amounts (≈) assume the structure as drawn.

Legend:
Leishmania major [1] = assay: Antileishmanial activity against Leishmania major amastigotes infected in mouse RAW 264.7 cells by luciferase reporter gene assay; assay type: functional, organism-based; conditions: RAW264.7
[2] = Cytotoxicity against mouse C2C12 cells assessed as reduction in cell viability; assay type: cell-based; conditions: read-out: TC50 (the source's name)
[3] = Protein binding in human plasma; assay type: ADME, cell-free; conditions: read-out: PPB (converted)
[4] = Intrinsic clearance in human liver microsomes assessed as per mg protein; assay type: ADME, Microsome; conditions: liver microsomes, read-out: CLH
[5] = Intrinsic clearance in rat hepatocytes assessed as per million cells; assay type: ADME, cell-based, Hepatocyte; conditions: read-out: CLH
[6] = Selectivity index, ratio of TC50 for human HepG2 cells to EC50 for antiplasmodial activity against Plasmodium falciparum D6; assay type: toxicity
[7] = Selectivity index, ratio of TC50 for mouse C2C12 cells to EC50 for antitrypanosomal activity against Trypanosoma cruzi CaI-72 trypomastigotes infected in mouse C2C12 cells; assay type: toxicity, cell-based
Plasmodium falciparum [8] = assay: Antiplasmodial activity against Plasmodium falciparum D6 measured after 72 hrs by SYBR green fluorescence dye based microplate reader analysis; assay type: functional, organism-based; conditions: D6, 72 h
Trypanosoma cruzi [9] = assay: Antitrypanosomal activity against Trypanosoma cruzi CaI-72 trypomastigotes infected in mouse C2C12 cells measured after 72 hrs by DAPI staining based assay; assay type: functional, organism-based; conditions: CaI-72, C2C12, 72 h
[10] = Aqueous solubility of compound at pH 7.4; assay type: physicochemical
Leishmania major [11] = assay: Antileishmanial activity against Leishmania major; assay type: functional, organism-based
Plasmodium falciparum [12] = assay: Antiplasmodial activity against chloroquine-sensitive mefloquine resistant Plasmodium falciparum D6; assay type: functional, organism-based
Trypanosoma cruzi [13] = assay: Antitrypanosomal activity against Trypanosoma cruzi Tulahuen amastigotes measured after 96 hrs by beta-galactosidase reporter gene assay; assay type: functional, organism-based
Plasmodium falciparum [14] = assay: Antiplasmodial activity against Plasmodium falciparum W2 after 72 hrs by SYBR Green fluorescence assay; assay type: functional, organism-based; conditions: W2, 72 h
Trypanosoma cruzi [15] = assay: Antitrypanosomal activity against Trypanosoma cruzi Tulahuen trypomastigotes infected in mouse NIH/3T3 cells measured after 96 hrs by beta-galactosidase reporter gene assay; assay type: functional, organism-based; conditions: NIH3T3, 96 h
Plasmodium falciparum [16] = assay: Antiplasmodial activity against Plasmodium falciparum TM91C235 after 72 hrs by SYBR Green fluorescence assay; assay type: functional, organism-based; conditions: TM91C235, 72 h

SMILES | EC50 (Leishmania major [1]) [µM] | CC50 [2] [µM] | fraction unbound [3] | microsomal CLint [4] [µL/min/mg] | hepatocyte CLint [5] [µL/min/1e6 cells] | selectivity ratio [6] | selectivity ratio [7] | EC50 (Plasmodium falciparum [8]) [µM] | EC50 (Trypanosoma cruzi [9]) [µM] | solubility ([10]; aqueous solution, read-out: solubility) [µM] | EC50 (Leishmania major [11]) [µM] | EC50 (Plasmodium falciparum [12]) [µM] | EC50 (Trypanosoma cruzi [13]) [µM] | EC50 (Plasmodium falciparum [14]) [µM] | EC50 (Trypanosoma cruzi [15]) [µM] | EC50 (Plasmodium falciparum [16]) [µM] | solubility ([10]; buffer) [µM]
O=S(=O)(c1ccc(-c2ccc3nccc(N[C@@H]4CCCC[C@H]4O)c3c2)cc1)N1CCOCC1 | > 22 | > 10 | 0.28 | 43 | 30 | > 80 | > 30 | 0.4 | 0.33 | 137 (≈ 64.1 µg/mL) |  |  |  |  |  |  | 
CS(=O)(=O)CCNCc1ccc(-c2ccc3ncnc(Nc4ccc(OCc5cccc(F)c5)c(Cl)c4)c3c2)o1 [LAPATINIB] |  |  |  |  |  |  |  |  |  |  | > 15 | 0.53 | 1.5 |  |  |  | 
CN1CCN(c2ncc(-c3ccc4c(Nc5cnccn5)ccnc4c3)cn2)CC1 | > 15 |  |  |  | 127 |  |  | 0.026 |  |  | > 15 |  | 6 | 0.062 | 6 | 0.037 | […]
